pIC50: −log10 of the molar value. Like-named read-outs stand apart in the source and are kept apart here.
Tested on: 407 cancer cell lines
Experiment: Cell viability of cancer cell lines (IC50), CellTiter-Glo Viability Assay, 96 h
Format: cell-based
Conditions: Homo sapiens, read-out: Absolute IC50
Description: Viability was determined by using the 50% inhibitory concentration (IC50) as determined with the CellTiter-Glo® Viability Assay (Promega).
Experiments were initiated by first thawing and equilibrating the CellTiter-Glo® Buffer to room temperature. The lyophilized CellTiter-Glo® Substrate was also equilibrated to room temperature. The lyophilized substrate was reconstituted with the CellTiter-Glo® buffer to form the CellTiter-Glo® Reagent.
Cells were harvested during the logarithmic growth period, counted, and the cell concentration adjusted to 4.44×10^4 cells/mL using culture medium.
Cells were allowed to grow overnight and the following day, the TO reading was obtained by adding 10 μL culture medium to each well of Plate A. The plate was allowed to equilibrate at room temperature for thirty minutes, after which 50 μL CellTiter-Glo® reagent was added to each well. The contents were mixed for 5 min on an orbital shaker to induce cell lysis. Plates were incubated for 20 minutes to stabilize the luminescent signal and the TO luminescence recorded.
Test plate B was incubated for 96 h in the humidified incubator at 37° C. with 5% CO2.
Following the incubation, the plate was equilibrated at room temperature for thirty minutes. CellTiter-Glo® (50 μL) was added to each well of the plate and contents mixed for five minutes on an orbital shaker to induce cell lysis. The luminescent signal was allowed to stabilize at room temperature for 20 minutes and the luminescence recorded.
IC50 (EC50) was calculated using a dose-response curve, fitted using a nonlinear regression model with a sigmoidal dose response. Survival rate was calculated using the formula:
The Surviving rate (%)=(LumTest article−LumMedium control)/(LumNon-treated−LumMedium control)×100%.
Absolute IC50 (EC50) was calculated according to the dose-response curve generated by the statistical software (GraphPad Prism 5.0).

## Cc1nn(-c2nc(-c3ccc(C(F)(F)F)cc3)c(SC(C)C)s2)c(C(=O)O)c1-c1cccc(F)c1 [Compound A197, 4-(3-fluorophenyl)-1-(5-(isopropylthio)-4-(4-(trifluoromethyl)phenyl)thiazol-2-yl)-3-methyl-1H-pyrazole-5-carboxylic acid]
NCI-H292, 96 h, NCI-H292 cells, 96 h
  pIC50: < 4.52
NCI-H358, 96 h, NCI-H358 cells, 96 h
  pIC50: 6.42
NCI-H441, 96 h, NCI-H441 cells, 96 h
  pIC50: < 4.52
NCI-H446, 96 h, NCI-H446 cells, 96 h
  pIC50: < 4.52
NCI-H460, 96 h, NCI-H460 cells, 96 h
  pIC50: < 4.52
NCI-H508, 96 h, NCI-H508 cells, 96 h
  pIC50: 5.88
NCI-H520, 96 h, NCI-H520 cells, 96 h
  pIC50: 6.52
NCI-H522, 96 h, NCI-H522 cells, 96 h
  pIC50: < 4.52
NCI-H526, 96 h, NCI-H526 cells, 96 h
  pIC50: < 4.52
NCI-H596, NCI-H596
  pIC50: < 4.52
NCI-H661, 96 h, NCI-H661 cells, 96 h
  pIC50: < 4.52
NCI-H716, 96 h, NCI-H716 cells, 96 h
  pIC50: 5.80
NCI-H727, 96 h, NCI-H727 cells, 96 h
  pIC50: < 4.52
NCI-H747, 96 h, NCI-H747 cells, 96 h
  pIC50: < 4.52
NCI-H929, NCI-H929
  pIC50: 4.72
NCI-H1048, 96 h, NCI-H1048 cells, 96 h
  pIC50: < 4.52
NCI-H1155, 96 h, NCI-H1155 cells, 96 h
  pIC50: 6.34
NCI-H1299, 96 h, NCI-H1299 cells, 96 h
  pIC50: 6.11
NCI-H1373, NCI-H1373
  pIC50: 6.10
NCI-H1395, NCI-H1395
  pIC50: 6.43
NCI-H1437, 96 h, NCI-H1437 cells, 96 h
  pIC50: 6.51
NCI-H1563, NCI-H1563
  pIC50: < 4.52
NCI-H1573, 96 h, NCI-H1573 cells, 96 h
  pIC50: 6.34
NCI-H1581, 96 h, NCI-H1581 cells, 96 h
  pIC50: < 4.52
NCI-H1648, 96 h, NCI-H1648 cells, 96 h
  pIC50: < 4.52
NCI-H1650, NCI-H1650
  pIC50: < 4.52
NCI-H1651, 96 h, NCI-H1651 cells, 96 h
  pIC50: 6.07
NCI-H1666, 96 h, NCI-H1666 cells, 96 h
  pIC50: < 4.52
NCI-H1703, 96 h, NCI-H1703 cells, 96 h
  pIC50: 6.44
NCI-H1792, 96 h, NCI-H1792 cells, 96 h
  pIC50: 5.90
NCI-H1838, 96 h, NCI-H1838 cells, 96 h
  pIC50: < 4.52
NCI-H1975, 96 h, NCI-H1975 cells, 96 h
  pIC50: < 4.52
NCI-H1993, 96 h, NCI-H1993 cells, 96 h
  pIC50: 5.92
NCI-H2009, NCI-H2009
  pIC50: 5.32
NCI-H2052, NCI-H2052
  pIC50: < 4.52
NCI-H2087, 96 h, NCI-H2087 cells, 96 h
  pIC50: < 4.52
NCI-H2122, 96 h, NCI-H2122 cells, 96 h
  pIC50: 6.57
NCI-H2170, 96 h, NCI-H2170 cells, 96 h
  pIC50: 6.30
NCI-H2228, 96 h, NCI-H2228 cells, 96 h
  pIC50: 6.21
NCI-H2452, NCI-H2452
  pIC50: < 4.52
NCI-H3122, 96 h, NCI-H3122 cells, 96 h
  pIC50: 6.41
NCI-N87, 96 h
  pIC50: 5.83
NUGC-3, 96 h, NUGC-3 cells, 96 h
  pIC50: 4.64
NUGC-4, 96 h, NUGC-4 cells, 96 h
  pIC50: 5.82
OCI-AML-3, OCI-AML3
  pIC50: < 4.52
OCI-LY19, OCI-LY-19
  pIC50: 6.02
OCI-Ly7, 96 h, OCI-LY7 cells, 96 h
  pIC50: 6.17
OE19, 96 h
  pIC50: < 4.52
OPM-2, OPM2
  pIC50: 6.43
OS-RC-2, OS-RC-2
  pIC50: < 4.52
OVCAR-3, 96 h, OVCAR-3 cells, 96 h
  pIC50: < 4.52
OVCAR-8, 96 h, OVCAR-8 cells, 96 h
  pIC50: 5.99
PANC-1, PANC-1
  pIC50: 5.57
PC-3, PC-3
  pIC50: < 4.52
PC-9, 96 h, PC-9 cells, 96 h
  pIC50: 5.95
PLC-PRF-5, PLC/PRF/5
  pIC50: 5.91
Pfeiffer, 96 h, Pfeiffer cells, 96 h
  pIC50: 6.74
REH
  pIC50: 6.51
RKO
  pIC50: 4.63
RL95-2, 96 h, RL95-2 cells, 96 h
  pIC50: 6.38
RPMI-2650, 96 h, RPMI-2650 cells, 96 h
  pIC50: 6.09
RPMI-8226, 96 h, RPMI 8226 cells, 96 h
  pIC50: 6.12
RS4-11, RS4;11
  pIC50: 6.16
RT112/84, RT112/84
  pIC50: 4.90
RT-4, 96 h, RT4 cells, 96 h
  pIC50: 6.08
Raji, 96 h, Raji cells, 96 h
  pIC50: 6.35
Ramos, 96 h, Ramos cells, 96 h
  pIC50: 6.12
SAOS-2, Saos-2
  pIC50: 6.09
SCC-4, 96 h
  pIC50: < 4.52
SCC-9, 96 h, SCC-9 cells, 96 h
  pIC50: < 4.52
SCC-15, 96 h, SCC-15 cells, 96 h
  pIC50: < 4.52
SCC-25, 96 h, SCC-25 cells, 96 h
  pIC50: < 4.52
SF-126, 96 h, SF-126 cells, 96 h
  pIC50: < 4.52
SF-268, 96 h, SF268 cells, 96 h
  pIC50: < 4.52
SH-SY5Y
  pIC50: < 4.52
SJSA-1, SJSA-1
  pIC50: < 4.52
SK-BR-3, SK-BR-3
  pIC50: 4.53
SK-CO-1, 96 h, SK-CO-1 cells, 96 h
  pIC50: 5.95
SK-HEP1, 96 h, SK-HEP-1 cells, 96 h
  pIC50: < 4.52
SK-LU-1, 96 h, SK-LU-1 cells, 96 h
  pIC50: 5.98
SK-MEL-5, 96 h
  pIC50: < 4.52
SK-MEL-28, 96 h
  pIC50: < 4.52
SK-MES-1, SK-MES-1
  pIC50: 5.92
SK-N-FI, 96 h, SK-N-FI cells, 96 h
  pIC50: 5.92
SK-N-SH
  pIC50: < 4.52
SK-NEP-1, 96 h, SK-NEP-1 cells, 96 h
  pIC50: 5.97
SK-OV-3, 96 h, SK-OV-3 cells, 96 h
  pIC50: < 4.52
SK-UT-1, 96 h, SK-UT-1 cells, 96 h
  pIC50: < 4.52
SNU1, 96 h, SNU-1 cells, 96 h
  pIC50: 4.97
SNU-5, 96 h
  pIC50: 5.74
SNU-354, SNU-354
  pIC50: < 4.52
SNU-387, SNU-387
  pIC50: < 4.52
SNU-398, SNU-398
  pIC50: 6.66
SNU-423, 96 h, SNU-423 cells, 96 h
  pIC50: < 4.52
SNU-449, SNU-449
  pIC50: 4.62
SNU-475, 96 h, SNU-475 cells, 96 h
  pIC50: 5.60
SNU-638, 96 h, SNU-638 cells, 96 h
  pIC50: < 4.52
ST486, 96 h, ST486 cells, 96 h
  pIC50: 6.66
SU-DHL-1, SU-DHL-1
  pIC50: 6.48
SU-DHL-4, SU-DHL-4
  pIC50: 5.97
SU-DHL-5, 96 h, SU-DHL-5 cells, 96 h
  pIC50: 6.38
SU-DHL-6, 96 h, SU-DHL-6 cells, 96 h
  pIC50: 5.98
SU-DHL-8, SU-DHL-8
  pIC50: 6.12
SUM-159-PT, SUM159PT
  pIC50: 4.75
SUP-B15, SUP-B15
  pIC50: 5.91
SW13, SW-13
  pIC50: 6.46
SW48, 96 h, SW48 cells, 96 h
  pIC50: < 4.52
SW480, SW480
  pIC50: < 4.52
SW626, 96 h, SW626 cells, 96 h
  pIC50: < 4.52
SW684, 96 h, SW684 cells, 96 h
  pIC50: < 4.52
SW756, 96 h, SW756 cells, 96 h
  pIC50: 4.55
SW780, 96 h, SW780 cells, 96 h
  pIC50: 4.65
SW837, 96 h, SW837 cells, 96 h
  pIC50: < 4.52
SW948, 96 h, SW948 cells, 96 h
  pIC50: < 4.52
SW982, 96 h, SW982 cells, 96 h
  pIC50: < 4.52
SW 1116, 96 h, SW1116 cells, 96 h
  pIC50: < 4.52
SW1417, 96 h, SW1417 cells, 96 h
  pIC50: < 4.52
SW1990, SW1990
  pIC50: 4.74
SiHa, 96 h, SiHa cells, 96 h
  pIC50: < 4.52
T47D
  pIC50: < 4.52
T84, T84
  pIC50: < 4.52
T-24, 96 h, T24 cells, 96 h
  pIC50: < 4.52
TE-1, TE-1
  pIC50: 5.01
TF-1, TF-1
  pIC50: < 4.52
THP-1, 96 h, THP-1 cells, 96 h
  pIC50: 6.68

From patent US20210278408A1, “METHODS OF TREATMENT OF CANCER WITH SUBSTITUTED PYRROLE AND PYRAZOLE COMPOUNDS AND DIAGNOSIS OF CANCERS SUSCEPTIBLE TO TREATMENT WITH SUBSTITUTED PYRROLE AND PYRAZOLE COMPOUNDS” (Bantam Pharmaceutical, LLC, priority 2018, published 2021)
